Test results from article PMC10673563, “In Vitro and In Vivo Biological Evaluation of Indole-thiazolidine-2,4-dione Derivatives as Tyrosinase Inhibitors” (Molecules, 2023).
Blank lines part the entries; values can stand above or below the compound they belong to.

Assays:
Mushroom tyrosinase = target: T1, Mushroom tyrosinase (Agaricus bisporus, UniProt C7FF04); assay: Tyrosinase inhibitory activity assay (L-DOPA, absorbance 475 nm); type: biochemical; details: for inhibition at 32 µM: initial concentration of 32 μM
T1 construct: purchased Sigma-Aldrich (Shanghai, China)
Method: The tyrosinase inhibitory activities of compounds 5a~5z were determined according to previous reports. In brief, 10 μL of compound was added into 140 μL of tyrosinase, incubated for 5 min at room temperature. Then, 50 μL of L-DOPA was added, followed by the measurement of absorbance change at 475 nm. The inhibition rate at different concentrations was calculated and compared to the blank control.

[1] = system: melanogenesis in B16F10 cells; assay: Melanin content in B16F10 cells; type: cell-based; details: 16 and 32 μM; for melanogenesis in B16F10 cells: 48 h
Method: B16F10 cell treatment was consistent with the above method. The harvested cells were suspended into NaOH (1 M, 200 μL). After boiling for 1 h, the mixture was measured to determine the absorbance change at wavelength of 405 nm.

[2] = system: tyrosinase activity in zebrafish; assay: Tyrosinase activity in zebrafish; type: in vivo; details: for tyrosinase activity in zebrafish: zebrafish embryos
Method: The embryos treated with compound 5w or kojic acid were lysed in PBS, followed by centrifugation to obtain the supernatant. The appropriate amount of supernatant, equal L-DOPA (5 mg/mL), was added and the absorbance at 475 nm was determined.

tyrosinase [3] = target: T2, tyrosinase (Agaricus bisporus, UniProt C7FF04); assay: Three-dimensional fluorescence spectra; set-up: species or system mushroom; details: 5w 8.5 μM
T2 construct: purchased Sigma-Aldrich (Shanghai, China)
Method: Three-dimensional fluorescence spectra were employed to monitor the effects of compound 5w on the conformation and microenvironment changes in tyrosinase. In the 3D fluorescence spectra of tyrosinase (Figure 5A), two characteristic peaks 1 and 2 appeared, which corresponded to Tyr and Trp residues and polypeptide strand transition, respectively.
Based on a previous report, the 3D fluorescence spectra of tyrosinase (0.17 mg/mL) and tyrosinase–compound 5w mixture were measured, respectively, at room temperature. The test wavelengths were 200–400 nm.
Target sequence in this assay (C7FF04 1-392 limits assumed): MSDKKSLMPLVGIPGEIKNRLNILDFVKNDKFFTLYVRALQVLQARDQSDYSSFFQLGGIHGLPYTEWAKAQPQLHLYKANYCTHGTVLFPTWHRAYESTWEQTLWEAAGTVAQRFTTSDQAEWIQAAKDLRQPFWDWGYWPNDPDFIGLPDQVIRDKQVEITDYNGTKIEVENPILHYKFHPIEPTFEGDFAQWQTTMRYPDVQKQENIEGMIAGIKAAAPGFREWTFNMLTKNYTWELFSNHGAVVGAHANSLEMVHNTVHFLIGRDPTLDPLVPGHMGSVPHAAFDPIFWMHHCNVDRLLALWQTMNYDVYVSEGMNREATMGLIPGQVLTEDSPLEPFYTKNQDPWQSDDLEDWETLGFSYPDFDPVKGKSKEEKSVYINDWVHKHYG

tyrosinase [4] = target: T2, tyrosinase; assay: CD spectra, secondary structure content of tyrosinase; set-up: species or system mushroom
Method: CD spectra, one widely used method for determining the secondary structure of protein, were applied to assay the effects of 5w on the conformation change of tyrosinase. The CD spectra of the tyrosinase–compound 5w mixture were monitored and two negative characteristic bands around 210 and 222 nm appeared (Figure 4), which represented typical features of α-helixes.
The CD spectra of tyrosinase (33 μM) and tyrosinase–compound 5w mixture were measured at room temperature, respectively, based on previous reports. The test wavelengths were 195~250 nm.
Target sequence in this assay (C7FF04 1-392): as the sequence (C7FF04 1-392 limits assumed) above

tyrosinase [5] = target: T2, tyrosinase; assay: Fluorescence quenching titration (Stern–Volmer); type: binding, mushroom
Method: Fluorescence quenching, an effective method for monitoring the binding of a compound to its target protein, was operated to examine the binding of compound 5w with tyrosinase.
For a further understanding of the binding process of compound 5w with tyrosinase, the fluorescence quenching manner was assayed using the Stern–Volmer equation. In the Stern–Volmer plots of compound 5w (Figure 3D), the lines at different temperatures presented a good linear, which illustrated only one quenching manner in their binding process. Although the quenching constant (Ksv) values were slightly proportional to temperature, the quench rate constant (Kq) values at different temperatures were all higher than 2 × 10^10 L mol^−1 S^−1, which is the maximum scattering collision quenching constant (Table 2). […] In addition, the number of binding sites (n) was obtained to be about one, meaning there was only one binding site between compound 5w and tyrosinase (Table 2).
According to a previous report, the fluorescence quenching titration was run. In total, 1 μL of 5w solution was progressively titrated into 2 mL of tyrosinase (0.17 mg/mL), followed by fluorescence spectra determination (λex = 280 nm) at temperatures of 298, 303, and 308 K, respectively. The quenching parameters were obtained using the Stern–Volmer equation.
Target sequence in this assay (C7FF04 1-392 limits assumed): as above

tyrosinase [6] = target: T2, tyrosinase; assay: Inhibition kinetics (Lineweaver–Burk plots); type: biochemical, mushroom
Method: To understand the inhibition mechanism of this kind of compound on tyrosinase, the inhibition kinetics of the preferable compound 5w were investigated. […] With the increasing concentrations of 5w, the Y-intercept of corresponding lines increased and the X-intercept decreased, meaning the decrease of Vmax and Km.
The kinetics studies of 5w were conducted using the above experimental procedure. The absorbance changes in the mixture containing 5w (0, 4, 8, and 16 μM), tyrosinase (66.7 U/mL), and L-DOPA (2, 4, 6, and 8 mM) were recorded, respectively. The data were analyzed using Lineweaver–Burk plots.
Target sequence in this assay (C7FF04 1-392 limits assumed): as above

B16F10 cells = assay: Cell cytotoxicity (MTT); type: cell-based; details: 4~32 μM, 48 h
Method: The effects of compound 5w and kojic acid on the cells’ viability were determined using the MTT method. B16F10 cells (5000 cells/well) were seeded into the 96-well plate for 24 h, followed by the treatment of compound 5w or kojic acid (4~32 μM) for another 48 h. Then, MTT solution (0.5 mg/mL) was added and incubated for 4 h. DMSO (100 μL) was used to dissolve the violet precipitates, and then the mixture was measured for its absorbance at 570 nm.

[7] = system: melanogenesis in zebrafish; assay: Melanin content in zebrafish (microscope, Image J); type: in vivo; details: for grayscale values of whole embryos / pigmentation of embryo (eyes, yolk sac, notum): compared to control embryo; for pigmentation of embryo (eyes, yolk sac, notum): embryo photos
Method: The embryos treated with compound 5w or kojic acid were observed under a microscope and the melanin content was assayed using Image J software.

[8] = system: tyrosinase activity in B16F10 cells; assay: Tyrosinase activity in B16F10 cells; type: cell-based; details: 16 and 32 μM; for cellular tyrosinase activity: 48 h
Method: The tyrosinase inhibitory activity of 5w in B16F10 cells was determined. B16F10 cells (1 × 10^5 cells/well) were seeded into the 6-well plate for 24 h and subsequently treated with compound 5w or kojic acid for another 48 h. Then, the harvested cells were suspended into the appropriate amount of Triton X-100 (1%) and frozen for 1 h at −80 °C. After it had thawed, the mixture was centrifuged to collect the supernatant. Then, its protein concentration was determined using a BCA Kit. After 20 μL of L-DOPA (10 mM) was added into 80 μL of protein solution, the absorbance change at 475 nm was measured.

T1 sequence (C7FF04 1-392): as the sequence (C7FF04 1-392 limits assumed) above

Compound: O=C(CN1C(=O)S/C(=C\c2ccccc2C(F)(F)F)C1=O)NCCc1c[nH]c2ccccc12 [5n]
- inhibition at 32 µM (Mushroom tyrosinase): 3.8%

Compound: O=C(CN1C(=O)S/C(=C\c2ccc(C(F)(F)F)cc2)C1=O)NCCc1c[nH]c2ccccc12 [5p]
- inhibition at 32 µM (Mushroom tyrosinase): 3%

Compound: COc1ccccc1/C=C1\SC(=O)N(CC(=O)NCCc2c[nH]c3ccccc23)C1=O [5q]
- inhibition at 32 µM (Mushroom tyrosinase): 1%

Compound: COc1ccc(/C=C2\SC(=O)N(CC(=O)NCCc3c[nH]c4ccccc34)C2=O)cc1 [5s]
- inhibition at 32 µM (Mushroom tyrosinase): 1%

Compound: O=C(CN1C(=O)S/C(=C\c2ccccc2O)C1=O)NCCc1c[nH]c2ccccc12 [5t]
- inhibition at 32 µM (Mushroom tyrosinase): 26.9%

Compound: O=C(CN1C(=O)S/C(=C\c2ccc(O)cc2)C1=O)NCCc1c[nH]c2ccccc12 [5v]
- inhibition at 32 µM (Mushroom tyrosinase): 24.6%

Compound: N#Cc1cccc(/C=C2\SC(=O)N(CC(=O)NCCc3c[nH]c4ccccc34)C2=O)c1 [5w]
- anti-melanogenesis activity compared with kojic acid [1]: obvious higher
- melanogenesis in B16F10 cells [1]: could inhibit
- anti-tyrosinase activity in zebrafish compared with kojic acid ([2]; concentration of 10 μM): higher anti-tyrosinase activity than kojic acid
- tyrosinase activity in zebrafish [2]: could reduce the tyrosinase activity in zebrafish
- 3D fluorescence characteristic peaks 1 and 2 of tyrosinase (tyrosinase [3]): reduced significantly accompanied by a slight shift
- IC50 (Mushroom tyrosinase): 11.2 µM
- inhibition at 32 µM (Mushroom tyrosinase): > 70%
- Random Coil (%) (tyrosinase [4]; [Enzyme]: [5w] 1: 1): 32.5%
- α-Helix (%) (tyrosinase [4]; [Enzyme]: [5w] 1: 1): 8.8%
- β-Sheet (%) (tyrosinase [4]; [Enzyme]: [5w] 1: 1): 33.6%
- β-Turn (%) (tyrosinase [4]; [Enzyme]: [5w] 1: 1): 19.9%
- Random Coil (%) (tyrosinase [4]; [Enzyme]: [5w] 1: 2): 34.5%
- α-Helix (%) (tyrosinase [4]; [Enzyme]: [5w] 1: 2): 8.9%
- β-Sheet (%) (tyrosinase [4]; [Enzyme]: [5w] 1: 2): 33.1%
- β-Turn (%) (tyrosinase [4]; [Enzyme]: [5w] 1: 2): 20.0%
- Random Coil (%) (tyrosinase [4]; [Enzyme]: [5w] 1: 3): 35.5%
- α-Helix (%) (tyrosinase [4]; [Enzyme]: [5w] 1: 3): 9.0%
- β-Sheet (%) (tyrosinase [4]; [Enzyme]: [5w] 1: 3): 32.7%
- β-Turn (%) (tyrosinase [4]; [Enzyme]: [5w] 1: 3): 20.1%
- fluorescence quenching process (tyrosinase [5]): static quenching process
- KSV (tyrosinase [5]; T 298 K): 3.77 ×10^4 Lmol^−1
- Kq (tyrosinase [5]; T 298 K): 3.77 ×10^12 Lmol^−1
- n (number of binding sites) (tyrosinase [5]; T 298 K): 0.72
- KSV (tyrosinase [5]; T 303 K): 3.84 ×10^4 Lmol^−1
- Kq (tyrosinase [5]; T 303 K): 3.84 ×10^12 Lmol^−1
- n (number of binding sites) (tyrosinase [5]; T 303 K): 0.74
- KSV (tyrosinase [5]; T 308 K): 4.47 ×10^4 Lmol^−1
- Kq (tyrosinase [5]; T 308 K): 4.47 ×10^12 Lmol^−1
- n (number of binding sites) (tyrosinase [5]; T 308 K): 0.82
- quench rate constant (Kq) (tyrosinase [5]; at different temperatures (298, 303, 308 K)): higher than 2 × 10^10 L mol^−1 S^−1
- inhibition type (tyrosinase [6]; Lineweaver–Burk plots): mixed-type tyrosinase inhibitor
- Ki (tyrosinase [6]; from plots of slope vs. inhibitor concentration, read-out: inhibition constant (Ki)): 11.7 µM
- effect on cells' viability (B16F10 cells): obvious effects
- decrease in grayscale values compared with kojic acid ([7]; Image J): displayed a higher decrease
- grayscale values of whole embryos ([7]; Image J): decrease in grayscale values
- pigmentation of embryo (eyes, yolk sac, notum) [7]: pigmentation decrease
- cellular anti-tyrosinase activity compared with kojic acid [8]: obvious higher
- cellular tyrosinase activity [8]: could inhibit

Compound: N#Cc1ccc(/C=C2\SC(=O)N(CC(=O)NCCc3c[nH]c4ccccc34)C2=O)cc1 [5x]
- inhibition at 32 µM (Mushroom tyrosinase): 24.6%

Compound: O=c1cc(CO)occ1O [Kojic acid, reference compound]
- melanogenesis in B16F10 cells [1]: could inhibit
- tyrosinase activity in zebrafish [2]: could reduce the tyrosinase activity in zebrafish
- effect on cells' viability (B16F10 cells): obvious effects
- grayscale values of whole embryos ([7]; Image J): decrease in grayscale values
- pigmentation of embryo (eyes, yolk sac, notum) [7]: pigmentation decrease
- cellular tyrosinase activity [8]: could inhibit

More lines, now with the values ahead:

- inhibition at 32 µM (Mushroom tyrosinase): 4.5%
Compound: O=C(CN1C(=O)S/C(=C\c2cccc(C(F)(F)F)c2)C1=O)NCCc1c[nH]c2ccccc12 [5o]

- inhibition at 32 µM (Mushroom tyrosinase): 2%
Compound: COc1cccc(/C=C2\SC(=O)N(CC(=O)NCCc3c[nH]c4ccccc34)C2=O)c1 [5r]

- inhibition at 32 µM (Mushroom tyrosinase): 36.2%
Compound: O=C(CN1C(=O)S/C(=C\c2cccc(O)c2)C1=O)NCCc1c[nH]c2ccccc12 [5u]

- inhibition at 32 µM (Mushroom tyrosinase): 19.8%
Compound: O=C(CN1C(=O)S/C(=C\c2cccc([N+](=O)[O-])c2)C1=O)NCCc1c[nH]c2ccccc12 [5y]

- inhibition at 32 µM (Mushroom tyrosinase): 19.1%
Compound: O=C(CN1C(=O)S/C(=C\c2ccc([N+](=O)[O-])cc2)C1=O)NCCc1c[nH]c2ccccc12 [5z]
